Measured values as given in patent US20080207748A1, “VITAMIN C PREPARATION” (INNOVATION LABS, INC., priority 2007, published 2008).

How the values were obtained:
[1] = system: Plasma C-Reactive Protein; assay: Human plasma C-reactive protein after single oral dose; assay type: in vivo; details: for Plasma C-Reactive Protein Change: 0 vs 24 hrs
Protocol: (§1) The human serum vitamin C, plasma C-reactive protein, oxidized LDL, and urine uric and oxalate levels were determined for the formulation of Example 1 and other vitamin C formulations.
(§2) Healthy volunteers maintained a low vitamin C diet for 14 days. […] Blood samples were collected immediately prior to the oral dose administration and at various time points post ingestion. Urine was collected over a 24-hour time period and saved for oxalate and uric acid assays. Serum vitamin C levels were measured by HPLC with coulometric electrochemical detection. Plasma C-reactive protein and oxidized LDL were measured by enzyme linked immunosorbent assay (ELISA) and urine uric acid and oxalate levels were measured by enzymatic methods.

[2] = system: human T-lymphoblastic H9 cell line; assay: Inhibition of PHA- or bifenthrin-induced homotypic T-lymphocyte aggregation; assay type: cell-based; details: H9 cells, 0.5 μM vitamin C form, 30 minutes at 37° C.; for homotypic aggregation (aggregate size), activator: None: no activator
Protocol: The ability to inhibit pesticide-induced T-lymphocyte aggregation was determined for the formulation of Example 1 and other vitamin C formulations.
The human T-lymphoblastic H9 cell line was incubated with vehicle (-) or with one of two activators of T-lymphocyte aggregation, phytohemagglutinin (PHA; […]) or bifenthrin ([…]). […] After treatment, the ability of each formulation to inhibit homotypic aggregation was measured by counting aggregate size at 400× magnification.

[3] = system: Plasma OxLDL; assay: Human plasma oxidized LDL after single oral dose; assay type: in vivo; details: for Plasma OxLDL Change: 0 vs 24 hrs
Protocol: as §1, §2

[4] = system: H9 cells, a human T-cell line; assay: Vitamin C absorption (uptake) in H9 cells; assay type: cell-based; details: 50 μM
Protocol: The rate of vitamin C absorption in H9 cells, a human T-cell line, was determined for the formulation of Example 1 and other vitamin C formulations.
At the times indicated in FIG. 1, cells were harvested and measured for vitamin C and protein content. The cellular vitamin C levels of the cells were measured using the 2,4-dinitrophenylhydrazine spectrophotometric technique (Bessey et al., 1947).

[5] = Human serum vitamin C levels after single oral dose; assay type: in vivo
Protocol: as §1, §2

[6] = Human urine uric acid after single oral dose; assay type: in vivo; details: single oral dose 1000 mg, urine collected over 24 hours
Protocol: as §1, §2

[7] = Human urine oxalate after single oral dose; assay type: in vivo; details: single oral dose 1000 mg, urine collected over 24 hours
Protocol: as §1, §2

[8] = 0 hrs (immediately prior to oral dose)
[9] = single oral dose 1000 mg, 24 hrs

Row | Compound | Plasma C-Reactive Protein [1, 8] | Plasma C-Reactive Protein Change [1] | Plasma C-Reactive Protein [1, 9] | homotypic aggregation (aggregate size), activator: PHA [2] | homotypic aggregation (aggregate size), activator: Bifenthrin [2] | homotypic aggregation (aggregate size), activator: None [2] | Plasma OxLDL Change [3] | cellular vitamin C levels (peak) ([4]; at approximately two hours) | cellular vitamin C levels ([4]; at fifteen minutes) | Serum Vitamin C Levels ([5]; 0 hrs (immediately prior to single oral dose of 1000 mg)) | Serum Vitamin C Levels ([5]; single oral dose 1000 mg, 1 hr post-admin) | Serum Vitamin C Levels ([5]; single oral dose 1000 mg, 2 hrs post-admin) | Serum Vitamin C Levels ([5]; single oral dose 1000 mg, 4 hrs post-admin) | Serum Vitamin C Levels ([5]; single oral dose 1000 mg, 6 hrs post-admin) | Serum Vitamin C Levels ([5]; single oral dose 1000 mg, 24 hrs post-admin) | Urine Markers: Uric Acid [6] | Urine Markers: Oxalate [7] | Plasma OxLDL [3, 8] | Plasma OxLDL [3, 9]
1 | O=C1O[C@H]([C@@H](O)CO)C(O)=C1O [AA, ascorbic acid] | 129.75 ± 26 ng/mL | 12.75 ng/mL | 117.00 ± 33 ng/mL | 75 ± 12 | 130 ± 5 | 9 ± 4 | 0.89 U/ml | 31 nmol/mg protein | 7±1.4 nmol/mg protein | – | – | – | – | – | – | – | – | – | –
2 | calcium ascorbate [CaA] | 189.17 ± 41 ng/mL | 8.34 ng/mL | 180.83 ± 43 ng/mL | 110 ± 10 | 137 ± 8 | 12 ± 4 | 3.78 U/ml | – | – | 0.50 ± 0.05 mg/dL | 0.88 ± 0.10 mg/dL | 1.12 ± 0.17 mg/dL | 1.03 ± 0.13 mg/dL | 1.0 ± 0.13 mg/dL | 0.59 ± 0.09 mg/dL | 39.75 ± 10.5 mg/dL | 17.8 ± 2.6 mg/dL | 60.56 ± 5 U/ml | 57.67 ± 6 U/ml
